# Laboratory results taken from patent publication US20250206751A1, “HETEROCYCLIC COMPOUND FOR INDUCING DEGRADATION OF G12D MUTANT KRAS PROTEIN” (Astellas Pharma Inc., priority 2022, published 2025).
# Legend:
# [1] = molecular target: T1, KRAS G12D protein (Homo sapiens, UniProt P01116, G12D); test: KRAS degradation activity by Cell ELISA in AsPC-1 (Test Example 1); assay type: cell-based; conditions: AsPC-1 cells, cultured overnight with compound, corrected with β-actin, read-out: DC50 (50% degradation concentration of the amounts of KRAS)
# T1 construct: host or cells: AsPC-1
# T1 sequence (P01116 1-188 isoform P01116-2 G12D): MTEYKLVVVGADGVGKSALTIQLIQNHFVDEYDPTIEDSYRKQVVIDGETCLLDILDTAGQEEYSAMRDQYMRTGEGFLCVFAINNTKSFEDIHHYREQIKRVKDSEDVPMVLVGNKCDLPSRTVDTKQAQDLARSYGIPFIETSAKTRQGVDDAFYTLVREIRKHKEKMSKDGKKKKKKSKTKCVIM
# In short: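 AsPC-1 cells (KRAS G12D), 2.0×10^4/well, treated overnight with compound (10 points, 10 μM–0.3 nM final) in RPMI 1640/10% FBS. Fixed cells immunostained for G12D-specific Ras and β-actin, with near-IR fluorescence read. Ras/actin ratio scaled DMSO = 0% and actin-only = 100%, and DC50 fitted by Sigmoid-Emax regression.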
# [2] = test system: phosphorylation of threonine 202 (Thr202) and tyrosine 204 (Tyr204) of ERK; test: ERK phosphorylation inhibitory effect by Cell ELISA in AsPC-1 (Test Example 2); assay type: cell-based, human; conditions: cultured overnight with compound, 1 μM trametinib taken as 0%
# In short: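 AsPC-1 cells (G12D KRAS) treated overnight with compound (10 points, 10 μM to 0.3 nM final), then glyoxal-fixed and immunostained for phospho-ERK with a fluorescent secondary read at 800 nm. IC50 by Sigmoid-Emax regression, with DMSO as 100% and 1 μM trametinib as 0%.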
# [3] = test system: human G12D mutant KRAS-positive pancreatic cancer line AsPC-1; test: Non-anchorage-dependent cell growth inhibition, spheroid 3D cell culture (Test Example 3); assay type: cell-based; conditions: AsPC-1 spheroid 3D culture, 6 days, CellTiter Glo 2.0
# In short: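 AsPC-1 spheroids, 5×10^2 cells per well on low-adhesion round-bottom plates in RPMI 1640/10% FBS, dosed next day at 10 or 6 points spanning 10 μM to 0.3 nM final for 6 days at 37° C., 5% CO2. Viability by CellTiter Glo 2.0 luminescence; IC50 by Sigmoid-Emax regression, DMSO 100% and cell-free medium 0%.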
# [4] = Homo sapiens, ASPC1, AsPC-1 cells
SMILES,DC50 [1] [nM],"IC50 [2, 4] [nM]","IC50 ([3]; Homo sapiens, ASPC1, 144 h) [nM]",IC50 ([2]; AsPC-1 cells) [nM],IC50 [3] [nM]
"Cc1ncsc1-c1ccc([C@H](CO)NC(=O)[C@@H]2C[C@@H](O)CN2C(=O)[C@H](C(C)C)n2cc(-c3ccc(COc4c(-c5c(C)c(F)cc6[nH]ncc56)c(C5CC5)cc5c(N(C)[C@H]6CCNC6)nc(OCCC(F)(F)F)nc45)cc3)nn2)cc1 (atropisomer, axis not shown) [Example 37]",58,32,32,,
CO[C@@H](C)COc1cc(N2C[C@@H]3C[C@H]2CN3)c2cc(C3CC3)c(-c3c(C)c(F)cc4[nH]ncc34)c(OCc3ccc(-c4cn([C@H](C(=O)N5C[C@H](O)C[C@H]5C(=O)N[C@@H](CO)c5ccc(-c6scnc6C)cc5)C(C)C)nn4)cc3)c2n1 [Example 55],10,4,15,,
"Cc1ncoc1-c1ccc([C@H](CO)NC(=O)[C@@H]2C[C@@H](O)CN2C(=O)[C@H](C(C)C)n2cc(-c3ccc(COc4c(-c5c(C)c(F)cc6[nH]ncc56)c(C5CC5)cc5c(N(C)[C@H]6CCNC6)nc(OC[C@@H]6CCCO6)nc45)cc3)nn2)cc1 (atropisomer, axis not shown) [Example 28]",47,5,5,,
"CCn1nccc1-c1ccc([C@H](CO)NC(=O)[C@@H]2C[C@@H](O)CN2C(=O)[C@H](C(C)C)n2cc(-c3ccc(COc4c(-c5c(C)c(F)cc6[nH]ncc56)c(C5CC5)cc5c(N(C)[C@H]6CCNC6)nc(OC[C@H]6CCCO6)nc45)cc3)nn2)cc1 (atropisomer, axis not shown) [Example 29]",20,6,7,,
"Cc1ncsc1-c1ccc([C@H](CO)NC(=O)[C@@H]2C[C@@H](O)CN2C(=O)[C@H](C(C)C)n2cc(-c3ccc(COc4c(-c5c(C)c(F)cc6[nH]ncc56)c(C5CC5)cc5c(N(C)[C@H]6CCNC6)nc(OCC(C)(C)F)nc45)cc3)nn2)cc1 (atropisomer, axis not shown) [Example 33]",33,45,24,,
"CO[C@@H](C)COc1nc(O[C@@H]2CCNC2)c2cc(C3CC3)c(-c3c(C)c(F)cc4[nH]ncc34)c(OCc3ccc(-c4cn([C@H](C(=O)N5C[C@H](O)C[C@H]5C(=O)N[C@@H](CO)c5ccc(-c6scnc6C)cc5)C(C)C)nn4)cc3)c2n1 (atropisomer, axis not shown) [Example 52]",11,4,4,,
"Cc1ncsc1-c1ccc([C@H](CO)NC(=O)[C@@H]2C[C@@H](O)CN2C(=O)[C@H](C(C)C)n2cc(-c3ccc(COc4c(-c5c(C)c(F)cc6[nH]ncc56)c(C5CC5)cc5c(N(C)[C@H]6CCNC6)nc(OC[C@H]6CCOC6)nc45)cc3)nn2)cc1 (atropisomer, axis not shown) [Example 17]",74,7,8,,
"Cc1ncsc1-c1ccc([C@H](CO)NC(=O)[C@@H]2C[C@@H](O)CN2C(=O)[C@H](C(C)C)n2cc(-c3ccc(COc4c(-c5c(C)c(F)cc6[nH]ncc56)c(C5CC5)cc5c(N(C)[C@H]6CCNC6)nc(OC[C@H](C)F)nc45)cc3)nn2)cc1 (atropisomer, axis not shown) [Example 35]",63,12,9,,
CO[C@@H](C)COc1cc(N(C)[C@H]2CCNC2)c2cc(C3CC3)c(-c3c(C)c(F)cc4[nH]ncc34)c(OCc3ccc(-c4cn([C@H](C(=O)N5C[C@H](O)C[C@H]5C(=O)N[C@@H](CO)c5ccc(-c6scnc6C)cc5)C(C)C)nn4)cc3)c2n1 [Example 56],28,,,17,73
"Cc1ncsc1-c1ccc([C@H](CO)NC(=O)[C@@H]2C[C@@H](O)CN2C(=O)[C@H](C(C)C)n2cc(-c3ccc(COc4c(-c5c(C)c(F)cc6[nH]ncc56)c(C5CC5)cc5c(N(C)[C@H]6CCNC6)nc(OCC(C)C)nc45)cc3)nn2)cc1 (atropisomer, axis not shown) [Example 34]",53,21,13,,
"CO[C@H](COc1nc(N(C)[C@H]2CCNC2)c2cc(C3CC3)c(-c3c(C)c(F)cc4[nH]ncc34)c(OCc3ccc(-c4cn([C@H](C(=O)N5C[C@H](O)C[C@H]5C(=O)N[C@@H](CO)c5ccc(-c6scnc6C)cc5)C(C)C)nn4)cc3)c2n1)C(F)F (atropisomer, axis not shown) [Example 43]",41,7,6,,
"CO[C@@H](C)COc1nc(N(C)[C@H]2CCNC2)c2cc(C3CC3)c(-c3c(C)c(F)cc4[nH]ncc34)c(OCc3ccc(-c4cn([C@H](C(=O)N5C[C@H](O)C[C@H]5C(=O)N[C@@H](CO)c5ccc(-c6scnc6C)cc5)C(C)C)nn4)nc3)c2n1 (atropisomer, axis not shown) [Example 45]",27,16,15,,
"Cc1ncsc1-c1ccc([C@H](CO)NC(=O)[C@@H]2C[C@@H](O)CN2C(=O)[C@H](C(C)C)n2cc(-c3ccc(COc4c(-c5c(C)c(F)cc6[nH]ncc56)c(C5CC5)cc5c(N[C@@H]6CNC[C@@H]6O)nc(OC6CCOCC6)nc45)cc3)nn2)cc1 (atropisomer, axis not shown) [Example 7]",40,9,23,,
"CCn1nccc1-c1ccc([C@H](CO)NC(=O)[C@@H]2C[C@@H](O)CN2C(=O)[C@H](C(C)C)n2cc(-c3ccc(COc4c(-c5c(C)c(F)cc6[nH]ncc56)c(C5CC5)cc5c(N(C)[C@H]6CCNC6)nc(OC[C@H]6CCCO6)nc45)cc3)nn2)nc1 (atropisomer, axis not shown) [Example 32]",51,37,24,,
"Cc1ncsc1-c1ccc([C@H](CO)NC(=O)[C@@H]2C[C@@H](O)CN2C(=O)[C@H](C(C)C)n2cc(-c3ccc(COc4c(-c5c(C)c(F)cc6[nH]ncc56)c(C5CC5)cc5c(N(C)[C@H]6CCNC6)nc(OCCCF)nc45)cc3)nn2)cc1 (atropisomer, axis not shown) [Example 38]",25,36,36,,
"CO[C@@H](CF)COc1nc(N(C)[C@H]2CCNC2)c2cc(C3CC3)c(-c3c(C)c(F)cc4[nH]ncc34)c(OCc3ccc(-c4cn([C@H](C(=O)N5C[C@H](O)C[C@H]5C(=O)N[C@@H](CO)c5ccc(-c6scnc6C)cc5)C(C)C)nn4)cc3)c2n1 (atropisomer, axis not shown) [Example 47]",26,22,15,,
"Cc1c(F)cc2[nH]ncc2c1-c1c(C2CC2)cc2c(N(C)[C@H]3CCNC3)cc(OC[C@@H]3CCCO3)nc2c1OCc1ccc(-c2cn([C@H](C(=O)N3C[C@H](O)C[C@H]3C(=O)N[C@@H](CO)c3ccc(-n4ccnc4C)cc3)C(C)C)nn2)cc1 (atropisomer, axis not shown) [Example 27]",68,7,7,,
"CO[C@@H](C)[C@H](C)Oc1nc(N(C)[C@H]2CCNC2)c2cc(C3CC3)c(-c3c(C)c(F)cc4[nH]ncc34)c(OCc3ccc(-c4cn([C@H](C(=O)N5C[C@H](O)C[C@H]5C(=O)N[C@@H](CO)c5ccc(-c6scnc6C)cc5)C(C)C)nn4)cc3)c2n1 (atropisomer, axis not shown) [Example 20]",41,38,21,,
"CO[C@@H](C)COc1nc(N(C)[C@H]2CCNC2)c2cc(C3CC3)c(-c3c(C)c(F)cc4[nH]ncc34)c(OCc3ccc(-c4cn([C@H](C(=O)N5C[C@H](O)C[C@H]5C(=O)N[C@@H](CO)c5ccc(N6CCOC6=O)cc5)C(C)C)nn4)cc3)c2n1 (atropisomer, axis not shown) [Example 15]",99,7,7,,
"CO[C@@H](C)COc1nc(N(C)[C@H]2CCNC2)c2cc(C3CC3)c(-c3c(C)c(F)cc4[nH]ncc34)c(OCc3ccc(-c4cn([C@H](C(=O)N5C[C@H](O)C[C@H]5C(=O)N[C@@H](CO)c5ccc(-n6cncn6)cc5)C(C)C)nn4)cc3)c2n1 (atropisomer, axis not shown) [Example 40]",47,7,6,,
"CO[C@@H](C)COc1nc(N2CCNCC2)c2cc(C3CC3)c(-c3c(C)c(F)cc4[nH]ncc34)c(OCc3ccc(-c4cn([C@H](C(=O)N5C[C@H](O)C[C@H]5C(=O)N[C@@H](CO)c5ccc(-c6scnc6C)cc5)C(C)C)nn4)cc3)c2n1 (atropisomer, axis not shown) [Example 54]",34,5,7,,
"CO[C@H](CF)COc1nc(N(C)[C@H]2CCNC2)c2cc(C3CC3)c(-c3c(C)c(F)cc4[nH]ncc34)c(OCc3ccc(-c4cn([C@H](C(=O)N5C[C@H](O)C[C@H]5C(=O)N[C@@H](CO)c5ccc(-c6scnc6C)cc5)C(C)C)nn4)cc3)c2n1 (atropisomer, axis not shown) [Example 46]",25,6,5,,
"CO[C@@H](C)COc1nc(N(C)[C@H]2CCNC2)c2cc(C3CC3)c(-c3c(C)c(F)cc4[nH]ncc34)c(OCc3ccc(-c4cn([C@H](C(=O)N5C[C@H](O)C[C@H]5C(=O)N[C@@H](CO)c5ccc(F)cc5)C(C)C)nn4)cc3)c2n1 (atropisomer, axis not shown) [Example 12]",61,42,41,,
